# pIC50: −log10 of the molar value.
# Molecular target: T1, recombinant human GR (Homo sapiens, UniProt P04150)
# T1 construct: purchased Panvera/Invitrogen P2812 (kit P2893)
# T1 sequence (P04150 1-777): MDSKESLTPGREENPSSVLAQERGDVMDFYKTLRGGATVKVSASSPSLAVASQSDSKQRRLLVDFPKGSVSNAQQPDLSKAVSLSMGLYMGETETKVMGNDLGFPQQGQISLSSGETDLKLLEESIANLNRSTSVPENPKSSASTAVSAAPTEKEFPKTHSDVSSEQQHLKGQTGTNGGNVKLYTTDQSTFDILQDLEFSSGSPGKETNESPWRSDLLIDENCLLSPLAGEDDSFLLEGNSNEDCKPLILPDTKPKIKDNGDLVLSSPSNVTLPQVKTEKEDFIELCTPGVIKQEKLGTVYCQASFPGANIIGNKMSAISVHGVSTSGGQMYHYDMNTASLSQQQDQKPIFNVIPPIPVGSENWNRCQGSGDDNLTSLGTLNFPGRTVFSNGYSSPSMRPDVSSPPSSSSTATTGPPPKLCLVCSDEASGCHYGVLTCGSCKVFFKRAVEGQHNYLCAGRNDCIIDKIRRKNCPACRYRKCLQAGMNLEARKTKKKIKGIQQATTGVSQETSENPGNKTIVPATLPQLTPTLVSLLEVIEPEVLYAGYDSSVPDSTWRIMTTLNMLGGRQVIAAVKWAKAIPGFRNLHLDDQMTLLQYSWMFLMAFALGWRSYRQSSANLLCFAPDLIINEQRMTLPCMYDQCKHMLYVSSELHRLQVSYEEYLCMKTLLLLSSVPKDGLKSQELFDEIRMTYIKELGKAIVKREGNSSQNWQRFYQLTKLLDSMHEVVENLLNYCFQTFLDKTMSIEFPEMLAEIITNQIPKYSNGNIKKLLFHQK
# Assay: Human Glucocorticoid Receptor (GR) Assay (fluorescence polarization, Panvera/Invitrogen kit)
# Format: binding
# Conditions: fluorescence polarization; GS Red tracer; 2 hours at room temperature; 100% control 10 μM Dexamethasone; read-out: Inhibition of GR binding, IC50
# Summary of the method: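 Fluorescence polarization competition with recombinant GR and GS Red fluorescent ligand plus stabilizing peptide and DTT in potassium phosphate/sodium molybdate/EDTA buffer with DMSO. Incubated 2 hours at room temperature in the dark; 0% control DMSO, 100% control 10 μM dexamethasone.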
row,SMILES,pIC50
1,"C[C@@H]1C[C@H]2[C@@H]3CCC4=Cc5c(cnn5-c5ccc(F)cc5)C[C@]4(C)[C@H]3[C@@H](O)C[C@]2(C)[C@@]1(OC(=O)c1ccco1)C(=O)SCC#N [Example 141, (1R,2R,3aS,3bS,10aR,10bS,11S,12aS)-1-{[(Cyanomethyl)thio]carbonyl}-7-(4-fluorophenyl)-11-hydroxy-2,10a,12a-trimethyl-1,2,3,3a,3b,4,5,7,10,10a,10b,11,12,12a-tetradecahydrocyclopenta[5,6]naphtho[1,2-f]indazol-1-yl furan-2-carboxylate]",7.89
2,"C[C@]12Cc3cnn(-c4ccc(F)cc4)c3C=C1CC[C@H]1[C@@H]3CC[C@](OC(=O)c4cocn4)(C(=O)SCC#N)[C@@]3(C)C[C@H](O)[C@@]12F [Example 201, (1R,3aS,3bS,10aS,10bR,11S,12aS)-1-{[(Cyanomethyl)sulfanyl]-carbonyl}-10b-fluoro-7-(4-fluorophenyl)-11-hydroxy-10a,12a-dimethyl-1,2,3,3a,3b,4,5,7,10,10a,10b,11,12,12a-tetradecahydrocyclopenta[5,6]naphtho[1,2-f]indazol-1-yl 1,3-oxazole-4-carboxylate]",8.28
3,"C[C@]12Cc3cnn(-c4ccc(F)cc4)c3C=C1CC[C@@H]1[C@@H]2[C@@H](O)C[C@@]2(C)[C@H]1CC[C@]2(OC(=O)c1cocn1)C(=O)SCF [Example 45, (1R,3aS,3bS,10aR,10bS,11S,12aS)-1-{[(Fluoromethyl)thio]carbonyl}-7-(4-fluoro-phenyl)-11-hydroxy-10a,12a-dimethyl-1,2,3,3a,3b,4,5,7,10,10a,10b,11,12,12a-tetradecahydrocyclopenta[5,6]naphtho[1,2-f]indazol-1-yl 1,3-oxazole-4-carboxylate]",8.47
4,"C[C@]12Cc3cnn(-c4ccc(F)cc4)c3C=C1CC[C@@H]1[C@@H]2[C@@H](O)C[C@@]2(C)[C@H]1CC[C@]2(OC(=O)c1ccoc1)C(=O)SCF [Example 51, (1R,3aS,3bS,10aR,10bS,11S,12aS)-1-{[(Fluoromethyl)thio]carbonyl}-7-(4-fluoro-phenyl)-11-hydroxy-10a,12a-dimethyl-1,2,3,3a,3b,4,5,7,10,10a,10b,11,12,12a-tetradecahydrocyclopenta[5,6]naphtho[1,2-f]indazol-1-yl furan-3-carboxylate]",8.16
5,"COCSC(=O)[C@@]1(OC(=O)c2cocn2)CC[C@H]2[C@@H]3CCC4=Cc5c(cnn5-c5ccc(F)nc5)C[C@]4(C)[C@H]3[C@@H](O)C[C@@]21C [Example 163, (1R,3aS,3bS,10aR,10bS,11S,12aS)-7-(6-Fluoropyridin-3-yl)-11-hydroxy-1-{[(methoxymethyl)sulfanyl]carbonyl}-10a,12a-dimethyl-1,2,3,3a,3b,4,5,7,10,10a,10b,11,12,12a-tetradecahydrocyclopenta[5,6]naphtho[1,2-f]indazol-1-yl 1,3-oxazole-4-carboxylate]",8.77
6,"C[C@]12Cc3cnn(-c4ccc(F)cc4)c3C=C1CC[C@H]1[C@@H]3CC[C@](OC(=O)C4CC4)(C(=O)SCC#N)[C@@]3(C)C[C@H](O)[C@@]12F [Example 195, (1R,3aS,3bS,10aS,10bR,11S,12aS)-1-{[(Cyanomethyl)sulfanyl]carbonyl}-10b-fluoro-7-(4-fluorophenyl)-11-hydroxy-10a,12a-dimethyl-1,2,3,3a,3b,4,5,7,10,10a,10b,11,12,12a-tetradecahydrocyclopenta[5,6]naphtho[1,2]-indazol-1-yl cyclopropanecarboxylate]",8.33
7,"COCSC(=O)[C@@]1(OC(=O)c2ccco2)CC[C@H]2[C@@H]3CCC4=Cc5c(cnn5-c5ccc(F)cc5)C[C@]4(C)[C@H]3[C@@H](O)C[C@@]21C [Example 93, (1R,3aS,3bS,10aR,10bS,11S,12aS)-7-(4-Fluorophenyl)-11-hydroxy-1-{[(methoxymethyl)sulfanyl]carbonyl}-10a,12a-dimethyl-1,2,3,3a,3b,4,5,7,10,10a,10b,11,12,12a-tetradecahydrocyclopenta[5,6]naphtho[1,2-f]indazol-1-yl furan-2-carboxylate]",8.25
8,"CCC(=O)O[C@]1(C(=O)SCF)CC[C@H]2[C@@H]3CCC4=Cc5c(cnn5-c5ccc(F)nc5)C[C@]4(C)[C@@]3(F)[C@@H](O)C[C@@]21C [Example 204, (1R,3aS,3bS,10aS,10bR,11S,12aS)-1-{[(Fluoromethyl)sulfanyl]carbonyl}-10b-fluoro-7-(6-fluoropyridin-3-yl)-11-hydroxy-10a,12a-dimethyl-1,2,3,3a,3b,4,5,7,10,10a,10b,11,12,12a-tetradecahydrocyclopenta[5,6]naphtho[1,2-f]indazol-1-yl propanoate]",8.48
9,"CSC(=O)[C@@]1(OC(=O)c2cocn2)CC[C@H]2[C@@H]3CCC4=Cc5c(cnn5-c5ccc(F)nc5)C[C@]4(C)[C@H]3[C@@H](O)C[C@@]21C [Example 161, (1R,3aS,3bS,10aR,10bS,11S,12aS)-7-(6-Fluoropyridin-3-yl)-11-hydroxy-10a,12a-dimethyl-1-[(methylsulfanyl)carbonyl]-1,2,3,3a,3b,4,5,7,10,10a,10b,11,12,12a-tetradecahydrocyclopenta[5,6]naphtho[1,2-f]indazol-1-yl 1,3-oxazole-4-carboxylate]",8.89
10,"Cn1cccc1C(=O)O[C@]1(C(=O)SCCO)CC[C@H]2[C@@H]3CCC4=Cc5c(cnn5-c5ccc(F)cc5)C[C@]4(C)[C@H]3[C@@H](O)C[C@@]21C [Example 178, (1R,3aS,3bS,10aR,10bS,11S,12aS)-7-(4-Fluorophenyl)-11-hydroxy-1-{[(2-hydroxyethyl)thio]carbonyl}-10a,12a-dimethyl-1,2,3,3a,3b,4,5,7,10a,10b,11,12,12a-tetradecahydrocyclopenta[5,6]naphtho[1,2]-indazol-1-yl 1-methyl-1H-pyrrole-2-carboxylate]",8.12
11,"CCC(=O)O[C@]1(C(=O)SCC(N)=O)CC[C@H]2[C@@H]3CCC4=Cc5c(cnn5-c5ccc(F)cc5)C[C@]4(C)[C@H]3[C@@H](O)C[C@@]21C [Example 13, (1R,3aS,3bS,10aR,10bS,11S,12aS)-{[(2-Amino-2-oxoethyl)thio]carbonyl}-7-(4-fluorophenyl)-11-hydroxy-10a,12a-dimethyl-1,2,3,3a,3b,4,5,7,10,10a,10b,11,12,12a-tetradecahydrocyclopenta[5,6]naphtho[1,2-f]indazol-1-yl propanoate]",8.51
12,"C[C@]12Cc3cnn(-c4ccc(F)c(CO)c4)c3C=C1CC[C@@H]1[C@@H]2[C@@H](O)C[C@@]2(C)[C@H]1CC[C@]2(OC(=O)c1ccco1)C(=O)OCC#N [Example 79, Cyanomethyl(1R,3aS,3bS,10aR,10bS,11S,12aS)-7-[4-fluoro-3-(hydroxymethyl)phenyl]-1-[(furan-2-ylcarbonyl)oxy]-11-hydroxy-10a,12a-dimethyl-1,2,3,3a,3b,4,5,7,10,10a,10b,11,12,12a-tetradecahydrocyclopenta[5,6]naphtho[1,2-f]indazole-1-carboxylate]",8.38
13,"CNC(=O)[C@@]1(O)CC[C@H]2[C@@H]3CCC4=Cc5c(cnn5-c5ccc(F)cc5)C[C@]4(C)[C@H]3[C@@H](O)C[C@@]21C [Example 70, (1R,3aS,3bS,10aR,10bS,11S,12aS)-7-(4-Fluorophenyl)-1,11-dihydroxy-N,10a,12a-trimethyl-1,2,3,3a,3b,4,5,7,10,10a,10b,11,12,12a-tetradecahydrocyclopenta[5,6]naphtho[1,2-f]indazole-1-carboxamide]",8.42
14,"C#CCSC(=O)[C@@]1(OC(=O)CC)CC[C@H]2[C@@H]3CCC4=Cc5c(cnn5-c5ccc(F)cc5)C[C@]4(C)[C@H]3[C@@H](O)C[C@@]21C [Example 20, (1R,3aS,3bS,10aR,10bS,11S,12aS)-7-(4-fluorophenyl)-11-hydroxy-10a,12a-dimethyl-1-[(prop-2-yn-1-ylthio)carbonyl]-1,2,3,3a,3b,4,5,7,10,10a,10b,11,12,12a-tetradecaphydrocyclopenta[5,6]naphtho[1,2-f]indazol-1-yl propanoate]",8.11
15,"COCC(=O)O[C@]1(C(=O)SCC#N)CC[C@H]2[C@@H]3CCC4=Cc5c(cnn5-c5ccc(F)cc5)C[C@]4(C)[C@@]3(F)[C@@H](O)C[C@@]21C [Example 197, (1R,3aS,3bS,10aS,10bR,11S,12aS)-1-{[(Cyanomethyl)sulfanyl]carbonyl}-10b-fluoro-7-(4-fluorophenyl)-11-hydroxy-10a,12a-dimethyl-1,2,3,3a,3b,4,5,7,10,10a,10b,11,12,12a-tetradecahydrocyclopenta[5,6]naphtho[1,2-f]indazol-1-yl methoxyacetate]",8.48

# Source: US8163724B2, “Glucocorticosteroids, processes for their preparation, pharmaceutical compositions containing them and their use in therapy” (AstraZeneca AB, priority 2007, dated 2012)
